pIC50, pKi: −log10 of the molar value. Values joined by “and” are separate entries in the source; they are usually repeats but may differ in a detail not shown here. Identical values can stand only once.
Columns and labels:
[1] = Inhibition of Plasmodium falciparum M18 aspartyl aminopeptidase assessed as inhibition constant
[2] = system: Plasmodium falciparum; test: Antimalarial activity against erythrocytic stage Plasmodium falciparum in human RBC assessed as inhibition of parasite growth incubated for 48 hrs by [3H]hypoxanthine incorporation assay; format: functional, organism-based, Red blood cell; conditions: Erythrocyte
[3] = system: Plasmodium falciparum; test: Antimalarial activity against erythrocytic stage Plasmodium falciparum in human RBC assessed as inhibition of parasite growth at 10 uM incubated for 48 hrs by [3H]hypoxanthine incorporation assay relative to control; format: functional, Red blood cell; parameters: scale not given: the % may be the effect or the level left
[4] = Inhibition of recombinant Plasmodium falciparum A-M1 assessed as inhibition constant using para-nitroanilide as substrate at 10 nM by spectrophotometer based method
[5] = Inhibition of recombinant Plasmodium falciparum A-M17 assessed as inhibition constant using leucine para-nitroanilide as substrate at 60 nM by spectrophotometer based method
[6] = system: Plasmodium falciparum; test: Antimalarial activity against Plasmodium falciparum 3D7 CQ-sensitive assessed as inhibition of growth by liquid scintillation counting method; format: functional, organism-based
[7] = system: Plasmodium falciparum; test: Antimalarial activity against Plasmodium falciparum chloroquine-resistant FcB1 Columbia assessed as inhibition of growth by liquid scintillation counting method; format: functional, organism-based
[8] = system: Plasmodium chabaudi; test: In vivo antiplasmodial activity against Plasmodium chabaudi chabaudi 864VD infected in BALB/c mouse assessed as reducing parasitaemia at 12 to 24 mg/kg, ip administered for 3 days after infection and measured after 25 days Giemsa staining based microscopic analysis relative to control; format: functional; parameters: scale not given: the % may be the effect or the level left; conditions: dose 12-24 mg/kg, time 25 day
[9] = Clearance in CD-1 mouse at 3 mg/kg, iv measured after 8 hrs hrs by UHPLC analysis; format: ADME, organism-based; conditions: in vivo
[10] = Half life in CD-1 mouse at 3 mg/kg, iv measured after 8 hrs hrs by UHPLC analysis; format: ADME, organism-based; conditions: in vivo
[11] = Inhibition of recombinant Plasmodium falciparum A-M17 assessed as inhibition constant using H-Leu-NHMec as substrate
[12] = system: Plasmodium falciparum; test: Antimalarial activity against Plasmodium falciparum D10 incubated for 48 hrs by [3H]hypoxanthine incorporation assay; format: functional, organism-based
[13] = Inhibition of recombinant Plasmodium falciparum A-M1 using Leu-pNA as substrate by microplate reader analysis
[14] = system: Plasmodium falciparum; test: Antimalarial activity against Plasmodium falciparum 3D7 CQ-sensitive incubated for 48 hrs by [3H]hypoxanthine incorporation assay based MicroBeta plate reader
[15] = system: Plasmodium falciparum; test: Antimalarial activity against multidrug resistant Plasmodium falciparum Dd2 incubated for 48 hrs by [3H]hypoxanthine incorporation assay based MicroBeta plate reader
[16] = system: Plasmodium berghei; test: In vivo antiplasmodial activity against Plasmodium berghei K173 infected in C57BL6 mouse assessed as mean survival time at 20 mg/kg, ip administered twice daily for 4 days after 2 hrs infection Giemsa staining based microscopic analysis relative to control; format: functional; conditions: time 4 day
[17] = system: Plasmodium yoelii; test: In vivo antiplasmodial activity against Plasmodium yoelii 17X infected in C57BL6 mouse assessed as mean survival time at 20 mg/kg, ip administered twice daily for 4 days after 2 hrs infection Giemsa staining based microscopic analysis relative to control; format: functional; conditions: time 4 day
[18] = system: Plasmodium falciparum; test: Antimalarial activity against Plasmodium falciparum NF54 wild-type assessed as reduction in proliferation incubated for 24 hrs by [3H]hypoxanthine incorporation assay; format: functional, organism-based
[19] = system: Plasmodium falciparum; test: Antimalarial activity against multidrug resistant Plasmodium falciparum W2 assessed as reduction in proliferation incubated for 24 hrs; format: functional, organism-based; conditions: W2, 24 h
[20] = Binding affinity to Plasmodium falciparum recombinant MetAP2 by Dex-Fum-mediated mammalian three-hybrid assay
[21] = system: Plasmodium falciparum; test: Antimalarial activity against Plasmodium falciparum 3D7 incubated for 48 hrs by [3H]hypoxanthine incorporation assay; format: functional, organism-based
[22] = system: Plasmodium falciparum; test: Antimalarial activity against Plasmodium falciparum K1 incubated for 48 hrs by [3H]hypoxanthine incorporation assay; format: functional, organism-based
[23] = system: Plasmodium chabaudi; test: In vivo antiplasmodial activity against Plasmodium chabaudi chabaudi infected in C57/BL6J mouse assessed as reducing parasitaemia at 25 mg/kg, po administered for 4 days relative to control; format: functional; parameters: scale not given: the % may be the effect or the level left; conditions: time 4 day
[24] = system: Plasmodium chabaudi; test: In vivo antiplasmodial activity against Plasmodium chabaudi chabaudi infected in C57/BL6J mouse assessed as reducing parasitaemia at 50 mg/kg, po administered for 4 days relative to control; format: functional; parameters: scale not given: the % may be the effect or the level left; conditions: time 4 day
[25] = system: Plasmodium chabaudi; test: In vivo antiplasmodial activity against Plasmodium chabaudi chabaudi infected in C57/BL6J mouse assessed as reducing parasitaemia at 50 to 100 mg/kg, po administered for 4 days relative to control; format: functional; parameters: scale not given: the % may be the effect or the level left; conditions: dose 50-100 mg/kg, time 4 day
[26] = Inhibition of Plasmodium falciparum alanyl aminopeptidase assessed as inhibition constant using H-Leu-NHMec as substrate by spectrofluorimeter based analysis
[27] = system: Plasmodium chabaudi; test: In vivo antiplasmodial activity against Plasmodium chabaudi chabaudi infected in C57/BL6J mouse assessed as reducing parasitaemia at 100 mg/kg, po administered for 4 days relative to control; format: functional; parameters: scale not given: the % may be the effect or the level left; conditions: time 4 day

`N[C@@H](CCC(=O)O)P(=O)(O)O` showed a pKi [1] of 6.47.

Work on `Oc1ccc(CCNc2c3ccccc3nc3ccccc23)cc1O` yielded a pIC50 [2] of 5.89 and an Activity [3] of 96%.

In the case of `NC1CCc2cccc(-c3ccccc3)c2CC1=O` (stereo unspecified), the pKi [4] was 7.30, the pKi [5] was < 4.00 and the pIC50 [6] was 4.95. The pIC50 [7] was 5.19, the Activity [8] was 40% and the clearance [9] was 43 mL/min/kg. For the same molecule, the half-life [10] was 2.2 h.

Molecule `CC(C)C[C@H](NC(=O)[C@@H](O)[C@H](N)Cc1ccc([N+](=O)[O-])cc1)C(=O)O` has a pKi [11] of 8.57 and a pIC50 [12] of 5.10.

`CC(C)CN(CCCN1CCN(CCCNc2ccnc3cc(Cl)ccc23)CC1)C(=O)CC(=O)NO` showed a pIC50 [13] of 6.07.

Molecule `Cc1nc(-c2ccccn2)nc(NCCc2ccccc2)c1Cl` has a pIC50 [14] of 5.80, a pIC50 [15] of 6.05 and an Activity [16] of 60%. For the same molecule, the Activity [17] was 80%.

`CO[C@]12C(=O)CC[C@@]1(CO)[C@H]2[C@@]1(C)O[C@@H]1CC=C(C)C` showed a pIC50 [18] of 6.80, a pIC50 [19] of 6.57 and a pIC50 [20] of 3.94.

For `CO[C@H](C(=O)NO)[C@@H](CC(C)C)C(=O)N[C@H](C(=O)O)c1ccccc1`, the pKi [11] was 4.60 and 4.59 and the pIC50 [21] was 5.70.

With `CO[C@H](C(=O)NO)[C@@H](CC(C)C)C(=O)N[C@H](C(=O)OC1CCCC1)c1ccccc1` the pKi [11] was 4.12, the pIC50 [21] was 6.43 and the pIC50 [22] was 6.42. The Activity [23] was 43%, the Activity [24] was 52% and the Activity [25] was 66%.

For `NC(CCc1ccccc1)P(=O)(O)CC(Cc1ccc(O)cc1)C(=O)O` (stereo unspecified), the pKi [26] was 6.63.

`NCCC(=O)N(CCCN1CCN(CCCNc2ccnc3cc(Cl)ccc23)CC1)CC1CC1` showed a pIC50 [13] of 4.68.

With `CC(C)CN(CCCN1CCN(CCCNc2ccnc3cc(Cl)ccc23)CC1)C(=O)C(N)C(=O)NO` (stereo unspecified) the pIC50 [13] was 5.60.

With `CO[C@H]1[C@H](C2(C)O[C@@H]2CC=C(C)C)[C@]2(CC[C@H]1OC(=O)NC(=O)CCl)CO2` (single isomer, unassigned) the pIC50 [18] was 8.70, the pIC50 [19] was 8.52 and the pIC50 [20] was 5.70.

`CN1CCc2cccc3c2[C@@H]1Cc1ccc(O)c(O)c1-3` [(S)APOMORPHINE] gave a pIC50 [2] of 5.40 and an Activity [3] of 87%.

`COC(=O)[C@H](CC(C)C)NC(=O)[C@@H](O)[C@H](N)Cc1ccccc1` [BESTATIN METHYL ESTER] gave a pKi [11] of 6.86 and a pIC50 [12] of 4.69.

For `CC(C)C[C@H](NC(=O)[C@@H](O)[C@H](N)Cc1ccccc1)C(=O)O` [UBENIMEX], the pIC50 [12] was 4.83, the pIC50 [21] was 5.30 and the Activity [27] was 34%.
